Results reported in patent US5164314A, “Microbiologically-prepared diacetyl reductase” (priority 1988, dated 1992).
Where “and” joins values, the source holds several entries; their conditions need not be identical. Equal entries are not always repeated. Where two headings read alike, the source gives them in different places. Blank lines part the entries; values can stand above or below the compound they belong to.

What was measured:
diacetyl reductase [1] = assay: Acetoin oxidation reaction with NAD as coenzyme; assay type: biochemical, Lactobacillus kefir; settings: pH and concentrations altered
[2] = tested on: Lc. enzyme (diacetyl reductase); assay: Effect of various metal cations and inhibitors on the diacetyl-reducing activity; assay type: biochemical, Lactobacillus kefir; settings: for Inhibition of the enzyme (in words): 1 mM concentration
Procedure: In order to determine the behavior of the diacetyl-reducing activity in the presence of metal cations and inhibitors, the appropriate substances were added in a concentration of 1 mM to the assay, and the activities were determined after an incubation time of 5 min at 20° C. The absorption characteristics of diacetyl made it necessary to determine two blanks, one measured with replacement of enzyme solution, and the other measured by replacing substrate solution by buffer.

diacetyl reductase E1 [3] = assay: Substrate spectrum and KM determination, enzyme E1; assay type: biochemical, Lactobacillus kefir; parameters: Rel. Vmax E1: unit not given here
diacetyl reductase E2 [4] = assay: Stereospecificity by oxidation of D(-)- and L(+)-lactic acid, enzyme E2; assay type: biochemical, Lactobacillus kefir; settings: NAD+, potassium phosphate buffer pH 7.0
Description: (§1) But since the enzyme can also reduce pyruvate (as shown in Table 5), this provides a method of establishing the stereospecificity on the basis of the pair of substrates (+)- and (-)-lactate. In assay mixtures with D(-)- or L(+)-lactic acid and NAD^+ in potassium phosphate buffer (pH 7.0), the two enzymes E1 and E2 were able to convert D(-)-lactic acid very well, whereas […] was converted with 5% of this activity by E1 and with 4% of this activity by E2.

diacetyl reductase E1 [5] = assay: Stereospecificity by oxidation of D(-)- and L(+)-lactic acid, enzyme E1; assay type: biochemical, Lactobacillus kefir; settings: NAD+, potassium phosphate buffer pH 7.0
Description: as §1

diacetyl reductase E2 [6] = assay: Substrate spectrum and KM determination, enzyme E2; assay type: biochemical, Lactobacillus kefir
Procedure: To determine KM, the activity of both Lactobacillus enzymes was measured as a function of the substrate concentration.
Various substrates were assayed with the most highly-purified preparations of the Lc. enzymes E1 and E2. The maximum conversion rate and KM were measured for each substrate by altering the concentration.

diacetyl reductase [7] = tested on: diacetyl reductase
Procedure: The enzyme was incubated with various concentrations of manganese chloride in an ice bath for 1 hour. The activity of each sample was then determined and, after 15 and 30 min, the activities were redetermined by renewed NADH addition.

[8] = Conversion of diacetyl by available lactate dehydrogenase; assay type: biochemical
Description: But it can be stated that, when available lactate dehydrogenase is used, diacetyl is not converted.

[9] = 1 mM, incubation 5 min at 20° C.
[10] = most highly-purified E1, read-out: Km E1
[11] = most highly-purified E2, read-out: Km E2

acetoin oxidation reaction (in words) (diacetyl reductase [1]): never possible to measure
Compound: CC(=O)C(C)O (single isomer, unassigned) [acetoin]

Residual activity of the Lc. enzyme [2, 9]: 72%
Compound: O[C@H](CS)[C@@H](O)CS [1,4-Dithioerythritol]

Inhibition of the enzyme (in words) [2]: strong inhibition
Residual activity of the Lc. enzyme [2, 9]: 0%
Compound: c1cnc2c(c1)ccc1cccnc12 [1,10-Phenanthroline]

Compound: c1ccc(-c2ccccn2)nc1 [2,2'-Bipyridyl]
Residual activity of the Lc. enzyme [2, 9]: 19%

Compound: O=C(O)c1cc(SSc2ccc([N+](=O)[O-])c(C(=O)O)c2)ccc1[N+](=O)[O-] [2,2'-Dinitro-5,5'-dithiodibenzoic acid]
Inhibition of the enzyme (in words) [2]: strong inhibition
Residual activity of the Lc. enzyme [2, 9]: 0%

Compound: CC(=O)CCC(C)=O [2,5-Hexanedione]
Rel. Vmax E1 (diacetyl reductase E1 [3]; most highly-purified E1): 7
Km (diacetyl reductase E1 [3]; [10]): 26 mM

Compound: CC(=O)CC(C)=O [Acetylacetone, 2,4-pentanedione]
Km (diacetyl reductase E1 [3]; enzyme not named in b63 (E1 in Table 5), read-out: Km for acetylacetone): 50 mM
Rel. Vmax E1 (diacetyl reductase E1 [3]; most highly-purified E1): 8
Km (diacetyl reductase E1 [3]; [10]): 50 mM

Compound: [Ba+2].[Cl-].[Cl-] [BaCl2]
Residual activity of the Lc. enzyme [2, 9]: 102%

Compound: [Ca+2].[Cl-].[Cl-] [CaCl2]
Residual activity of the Lc. enzyme [2, 9]: 96%

Compound: [Cl-].[Cl-].[Co+2] [CoCl2]
Residual activity of the Lc. enzyme [2, 9]: 102%

Compound: [Cl][Cu][Cl] [CuCl2]
Inhibition of the enzyme (in words) [2]: strong inhibition
Residual activity of the Lc. enzyme [2, 9]: 0%

Conversion of lactic acid by E2 (in words) (diacetyl reductase E2 [4]): very well
Conversion of lactic acid by E1 (in words) (diacetyl reductase E1 [5]): very well
Compound: C[C@@H](O)C(=O)O [D(-)-lactic acid]

diacetyl concentration of substrate saturation, E2 (diacetyl reductase E2 [6]): above 1 M
Km (diacetyl reductase E2 [6]; linear regression of Lineweaver-Burke plot, read-out: Km (E2)): 67 mM
Rel. Vmax E2 (diacetyl reductase E2 [6]; most highly-purified E2): 100
Km (diacetyl reductase E2 [6]; [11]): 67 mM
Km (diacetyl reductase E2 [6]; pH 4.25, read-out: KM for the reduction of diacetyl (E2)): 67 mM
diacetyl concentration of substrate saturation, E1 (diacetyl reductase E1 [3]): above 1 M
Rel. Vmax E1 (diacetyl reductase E1 [3]; most highly-purified E1): 100
Compound: CC(=O)C(C)=O [Diacetyl]

Residual activity of the Lc. enzyme [2, 9]: 100%
Compound: CCC(CC)(C(=O)O)C(=O)O [Diethylmalonic acid]

Residual activity of the Lc. enzyme [2, 9]: 106%
Compound: O[C@H](CS)[C@H](O)CS [Dithiothreitol]

Compound: O=C(O)CN(CCN(CC(=O)O)CC(=O)O)CC(=O)O [EDTA]
Residual activity of the Lc. enzyme [2]: 94%

Rel. Vmax E2 (diacetyl reductase E2 [6]; most highly-purified E2): 77
Km (diacetyl reductase E2 [6]; [11]): 2.1 mM
Rel. Vmax E1 (diacetyl reductase E1 [3]; most highly-purified E1): 109
Km (diacetyl reductase E1 [3]; [10]): 2.4 mM
Compound: CCOC(=O)C(C)=O [Ethyl pyruvate]

Compound: [Cl][Fe][Cl] [FeCl2]
Inhibition of the enzyme (in words) [2]: strong inhibition
Residual activity of the Lc. enzyme [2, 9]: 0%

Compound: [Cl][Fe]([Cl])[Cl] [FeCl3]
Residual activity of the Lc. enzyme [2, 9]: 82%

Residual activity of the Lc. enzyme [2, 9]: 103%
Compound: N[C@@H](CCC(=O)N[C@@H](CS)C(=O)NCC(=O)O)C(=O)O [Gluthathione]

Compound: [Cl][Hg][Cl] [HgCl2]
Inhibition of the enzyme (in words) [2]: strong inhibition
Residual activity of the Lc. enzyme [2, 9]: 0%

Compound: NC(=O)CI [Iodoacetamide]
Residual activity of the Lc. enzyme [2, 9]: 99%

Compound: O=C(O)CI [Iodoacetic acid]
Residual activity of the Lc. enzyme [2]: 102%

Activity relative to that with D(-)-lactic acid, E2 (diacetyl reductase E2 [4]): 4%
Activity relative to that with D(-)-lactic acid, E1 (diacetyl reductase E1 [5]): 5%
Compound: C[C@H](O)C(=O)O [L(-)-lactic acid, L(+)-lactic acid]

Residual activity of the Lc. enzyme [2, 9]: 100%
Compound: N[C@H]1CONC1=O [L-Cycloserine]

Compound: [Cl-].[Cl-].[Mg+2] [MgCl2]
Inhibition of the enzyme (in words) [2]: strong inhibition
Residual activity of the Lc. enzyme [2, 9]: 0%

Compound: [Cl][Mn][Cl] [MnCl2, manganese chloride]
Residual activity of the Lc. enzyme [2, 9]: 91%
rel. activity (diacetyl reductase [7]; 1 mM manganese, 15 min): 69%
rel. activity (diacetyl reductase [7]; 1 mM manganese, 30 min): 0.3%
rel. activity (diacetyl reductase [7]; 1 mM manganese, t = 0): 100%
rel. activity (diacetyl reductase [7]; 2 mM manganese, 15 min): 79%
rel. activity (diacetyl reductase [7]; 2 mM manganese, 30 min): 25%
rel. activity (diacetyl reductase [7]; 2 mM manganese, t = 0): 100%
Effect on enzyme stability (in words) (diacetyl reductase [7]; 5 mM): distinctly stabilizes the enzyme
rel. activity (diacetyl reductase [7]; 5 mM manganese, 15 min): 88%
rel. activity (diacetyl reductase [7]; 5 mM manganese, 30 min): 39%
rel. activity (diacetyl reductase [7]; 5 mM manganese, t = 0): 100%
rel. activity (diacetyl reductase [7]; 10 mM manganese, 15 min): 46%
rel. activity (diacetyl reductase [7]; 10 mM manganese, 30 min): 19%
rel. activity (diacetyl reductase [7]; 10 mM manganese, t = 0): 100%

Compound: CCN1C(=O)C=CC1=O [N-Ethylmaleimide]
Residual activity of the Lc. enzyme [2, 9]: 112%

Compound: NC(=O)C1=CN([C@@H]2O[C@H](COP(=O)(O)OP(=O)(O)OC[C@H]3O[C@@H](n4cnc5c(N)ncnc54)[C@H](O)[C@@H]3O)[C@@H](O)[C@H]2O)C=CC1 [NADH, nicotinamide adenine dinucleotide, reduced]
Rel. Vmax E2 (diacetyl reductase E2 [6]; most highly-purified E2): 100
Km (diacetyl reductase E2 [6]; [11]): 0.036 mM
Rel. Vmax E1 (diacetyl reductase E1 [3]; most highly-purified E1): 100
Km (diacetyl reductase E1 [3]; [10]): 0.03 mM

Compound: [Cl][Ni][Cl] [NiCl2]
Residual activity of the Lc. enzyme [2, 9]: 100%

Compound: O=S(=O)(F)Cc1ccccc1 [PMSF]
Inhibition of the enzyme (in words) [2]: less inhibition
Residual activity of the Lc. enzyme [2, 9]: 29% and 30%

Compound: NNc1ccccc1 [Phenylhydrazine]
Inhibition of the enzyme (in words) [2]: strong inhibition
Residual activity of the Lc. enzyme [2, 9]: 0%

Compound: [Cl-].[Cl-].[Zn+2] [ZnCl2]
Residual activity of the Lc. enzyme [2, 9]: 85%

Compound: O=C(O)c1cc[c]([Hg+])cc1.[OH-] [p-Hydroxymercuribenzoate]
Residual activity of the Lc. enzyme [2, 9]: 79%

Compound: Diacetylbenzene
Rel. Vmax E1 (diacetyl reductase E1 [3]; most highly-purified E1): 1.3

Compound: Triton X-100
Residual activity of the Lc. enzyme [2, 9]: 113%

Compound: lactate dehydrogenase
conversion of diacetyl (in words) [8]: not converted
